System: MELANODERM™ MEL-300B tissue constructs
Assay: Overall Melanin Level Assay (MELANODERM skin analog, Solvable Melanin Assay)
Format: cell-based, human
Conditions: for Absorbance (relative melanin content): MEL-300B tissue (donors with black complexion), 25 μl applied every other day for 10 days, read at 490 nm, 2% kojic acid solution, 0.4% hydroquinone solution, formulation of Table 1, untreated control 0.927
Method: This bioassay was used to analyze the effect of compounds on melanogenesis. […] The endpoint of this assay was spectrophotometric measurement of melanin production and cellular viability of tissue constructs derived from donors. The skin lightening efficacy of the formulation in Table 1 was evaluated using a skin analog sold by MatTek Corp. under the tradename MELANODERM™. Tissue constructs derived from donors with a black complexion (MELANODERM™ MEL-300B) were used. Tissue constructs derived from people with a black complexion have melanocytes with increased pigmentation versus those of people with a white or brown complexion melanocytes. MEL-300B tissue inserts were placed into the wells of 12-well plates filled with maintenance medium and pre-equilibrated in a humidified 37° C., 5% CO2 incubator overnight prior to applying treatment. After removal of the pre-equilibration medium, 25 μl of the formulation of Table 1 was applied directly to the MEL-300B stratum corneum by pipetting with a positive displacement pipette into the cell culture insert which contained the MEL-300B tissue inserts. Treatments were done in triplicates. 25 μl of 2% Kojic Acid (KA) solution and 25 μl of 0.4% Hydroquinone (HQ) solution were used as positive controls and 25 μl of sterile ultrapure water served as negative control. The MEL-300B tissue inserts were treated every other day for 10 consecutive days. Maintenance medium was replaced every other day with fresh medium. After treatment, the MEL-300B tissue inserts were submerged in phosphate buffered saline (PBS) for 10 minutes to remove any residual phenol red and test article from the tissue. After the MEL-300B tissue inserts were rinsed off, viability was measured on one of the tissues using the MTT viability assay (MTT Kit part #: MTT-100). The relative melanin content was measured using the Solvable Melanin Assay. Briefly, the tissues were removed from the inserts using fine-point forceps. Each tissue was blotted dry and placed in a 1.7 ml microfuge tube. […] Absorbance of the plate was read at 490 nm.

Compound | Absorbance (relative melanin content) | effect on melanin compared to untreated control / positive control (in words) (MEL-300B tissue (dark skin model), topical application)
O=c1cc(CO)occ1O [Kojick Acid, Kojic Acid] | 0.629 | –
Oc1ccc(O)cc1 [Hydroquinone] | 1.222 | increase melanin compared to the untreated control
